# Data published in BindingDB's records for doi:10.1016/j.bmcl.2012.11.036 (University of Namur, 2012).
# Target: Indoleamine 2,3-dioxygenase 1 (Homo sapiens, UniProt P14902)
# Experiment: Inhibition of human recombinant IDO1 using L-Trp as substrate assessed as kynurenine level after 30 mins
# Chain of Indoleamine 2,3-dioxygenase 1 (P14902 whole entry): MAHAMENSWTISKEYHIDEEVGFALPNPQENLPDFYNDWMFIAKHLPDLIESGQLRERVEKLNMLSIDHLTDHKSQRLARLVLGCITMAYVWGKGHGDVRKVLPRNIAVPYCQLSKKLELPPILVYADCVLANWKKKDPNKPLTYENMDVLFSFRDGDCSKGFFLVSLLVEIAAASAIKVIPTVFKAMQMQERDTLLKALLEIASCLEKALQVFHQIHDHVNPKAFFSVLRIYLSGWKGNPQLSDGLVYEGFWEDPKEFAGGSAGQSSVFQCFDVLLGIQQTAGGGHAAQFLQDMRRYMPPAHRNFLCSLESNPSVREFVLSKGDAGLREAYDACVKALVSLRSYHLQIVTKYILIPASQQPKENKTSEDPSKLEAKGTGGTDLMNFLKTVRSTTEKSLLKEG
row,IC50 [µM],SMILES
1,5.6,COc1ccc(C2CN=C3C(=O)c4c(CCN)cn(S(=O)(=O)c5ccc(C)cc5)c4C(=O)C32)cc1 (configuration not stated)
2,5.6,COc1ccc(C2CN=C3C(=O)c4ccn(S(=O)(=O)c5ccc(C)cc5)c4C(=O)C32)cc1 (configuration not stated)
